Test results taken from patent publication US20250129021A1, “SMALL MOLECULE PROTEIN SYNTHESIS MODULATORS” (Interdict Bio, Inc., priority 2023, published 2025).
pIC50: −log10 of the molar value. Read-outs that look alike come from different tables or passages of the source.

Assays:
Type in all cases: biochemical
Details in all cases: HeLa S3 lysate, 2 hrs at 30° C.
CCND1 = assay: In vitro transcription-translation (IVTT) assay, CCND1 reporter
Description: (§1) All reporter constructs have been cloned into the pT7CFE1-CHis plasmid (ThermoFisher #88860) using Gibson assembly procedures (NEB #E2611L). The parental pT7CFE1-CHis plasmid contains an EMCV IRES at the 5′UTR for translation initiation, a multiple-cloning site (MCS) for gene insertion, an optional C-terminal His-epitope tag, and polyA sequence in the 3′UTR to regulate mRNA stability. All reporters are designed to be inserted at the MCS to include a red fluorescent protein (mCherry), P2A self-cleaving peptide which releases the preceding mCherry protein product, and a fusion open reading frame containing a 3×FLAG epitope, a peptide sequence of interest (TEST), and green fluorescent protein (sfGFP).
(§2) Construct Plasmid Preparation: All plasmids are isolated from MACH1 cells (ThermoFisher) grown overnight in ampicillin-containing luria broth, and purified using ZymoPure Express Plasmid Midiprep Kit (Zymo Research). Constructs are sequenced verified and diluted to a working concentration of 110 ng/μL.
(§3) HeLa S3 Lysate Preparation: HeLa S3 cell pellets are acquired from Ipracell/Ipratech (Belgium) and shipped as 4 mL frozen cell pellets on dry ice for storage at −80° C. until use. The procedure for lysate preparation is as follows. Prepare 1× Lysis Buffer, cold and stored on ice:
(§4) Each preparation takes 8 cell pellets (4 ml packed volume each, approximately 1.0×10^9 cells per pellet). Thaw cell pellets from −80° C. on ice for 90 mins. Lay pellets horizontally on top of the ice and rotate every 30 mins to ensure even thawing. Once thawed, add 4 mL of cold lysis buffer to each pellet, and using a serological pipet, gently pipet up and down to break up clumps. Incubate resuspended cells in ice for an additional 30 mins (plunged into ice). During 30 min incubation, rinse and RNase-zap (Ambion) glass dounces (use loose pestle “A”), gently dry and place on ice until needed. Prepare RNase-free Eppendorf tubes for spinning and for batch storage. Add batch labels to 1.5-1.7 mL RNase-free microcentrifuge tubes (labeling scheme below). Each batch will have an extra 1.5-1.7 mL RNase-free microcentrifuge tube for 40 μL of lysate, label the top of this tube (labeling scheme below). After 30 min incubation, transfer all 8 mL of cell pellet to dounce. Cell lysis is complete after douncing 100 times. Aliquot cell lysis into 1.5-1.7 mL temporary-microcentrifuge tubes. Place tubes in centrifuge with “fins” out, and spin at 1,200×g for 5 mins. After the first spin use a 1 mL pipet to resuspend each tube and repeat spin. This acts as an additional lysis step, is more vigorous and increases lysate yield. During second spin get liquid N2 and a fresh conical tube on ice. After spin is complete, transfer supernatant (lysate) from microcentrifuge tubes into the 50 mL conical tube and keep on ice. Repeat steps 10-14 for all other cell pellets until completed. Once all cell lysate has been transferred to the 50 mL conical tube pipet to mix so the solution is homogenous. Transfer 1 mL of lysate into batch-labeled microcentrifuge tubes and flash freeze in liquid nitrogen. Be sure to pipet up and down to mix throughout transfer step. Place all tubes in the […] for long-term storage.
(§5) In vitro transcription-translation assay setup: Each assay includes a master mix containing lysate and shared components, a 96-well plate containing compound titrations for testing, a 96-well DNA plate with reporter constructs to be tested, 96-well skirted PCR plates, and 96-well flat-bottom, black, fluorescent assay plates. […]

MYC = assay: In vitro transcription-translation (IVTT) assay, MYC reporter
Description: as §1, §2, §3, §4, §5

MCL-1 = assay: In vitro transcription-translation (IVTT) assay, MCL-1 reporter
Description: as §1, §2, §3, §4, §5

CCNTB1 = assay: In vitro transcription-translation (IVTT) assay, CCNTB1 reporter
Experimental: as §4
In vitro transcription-translation assay setup: Each assay includes a master mix containing lysate and shared components, a 96-well plate containing compound titrations for testing, a 96-well DNA plate with reporter constructs to be tested, 96-well skirted PCR plates, and 96-well flat-bottom, black, fluorescent assay plates. Reaction materials setup: (A) Master mix—15 mL conical tube (3 mL of HeLa S3 Lysate described above; 0.6 mL of ThermoFisher Accessory Proteins (#88882); 1.2 ml of ThermoFisher Reaction Mix (#88882); 0.54 mL of nuclease-free Water); (B) 96-Well Master Mix+Compound Plate (Half-log dilutions (30 μM−0.1 μM) of 4 compounds of interest are prepared in 100% DMSO); 96-Well DNA Plate (Five DNA constructs are plated into single columns within the plate. Row 1 of the column contains nuclease free H2O, all other wells contain 110 ng/μL plasmid DNA). Reactions are started by mixing 155 μL of master mix and 3.5 μL of compound serial dilutions, then 9.1 μL of master mix+compound mixture is aliquoted across 5 96-well plates. Reactions begin with final addition of 2 μL of DNA for a 11.1 μL reaction volume in each well. The entire plate is sealed, and incubated for 2 hrs at 30° C. After 2 hrs, quench the assay using 45 μL of PBS, and transfer 50 μL to a flat-bottom black microplate Quantify the sfGFP and mCherry signals from each well on each plate, taking 3 reads of each plate, and perform data analysis below.
In vitro transcription-translation assay data analysis: Each plate is read three times in channels for both sfGFP and mCherry signals. The average signal across these 3 reads is then calculated for further analysis. Control wells containing no DNA reporter are subtracted from reporter wells in the same column to remove auto-fluorescence of the lysate. Then, the ratio of sfGFP/mCherry is calculated per well, and these ratios are averaged across the triplicate experiments on the same plate. Finally, the ratio of each titration concentration is normalized to the no drug control to create the normalized stalling metric. […]

[1] = IVTT assay, MYC reporter, normalized sfGFP/mCherry ratio, half-log dilutions 30 μM-0.1 μM

pIC50 (CCND1; IVTT) | pIC50 (MCL-1; IVTT, read-out: MCL1 IC50) | pIC50 (CCNTB1) | pIC50 (CCND1; sfGFP/mCherry ratio) | pIC50 (MYC; sfGFP/mCherry ratio) | pIC50 (MCL-1; sfGFP/mCherry ratio) | SMILES | pIC50 (MYC; [1])
< 4.52 | < 4.52 | < 4.52 |  |  |  | COc1ccc(C[C@H]2NC[C@H](O)[C@H]2OC(=O)NCC(=O)NCC(=O)O)cc1 [V188018, {2-[({[(2R,3S,4S)-4-hydroxy-2-[(4-methoxyphenyl)methyl]pyrrolidin-3-yl]oxy}carbonyl)amino]acetamido}acetic Acid] | 4.70 to 5.00
< 4.52 | < 4.52 | < 4.52 |  |  |  | COc1ccc(C[C@H]2NC[C@H](O)[C@H]2OC(=O)NCC(=O)N[C@@H](C)C(=O)O)cc1 [V188019, (2S)-2-{2-[({[(2R,3S,4S)-4-hydroxy-2-[(4-methoxyphenyl)methyl]pyrrolidin-3-yl]oxy}carbonyl)amino]acetamido}propanoic acid] | 4.70 to 5.00
 |  |  | 4.70 to 5.00 | 4.70 to 5.00 | 4.70 to 5.00 | COc1ccc(C[C@H]2NC[C@H](O)[C@H]2OC(=O)NCCNc2ccccn2)cc1 [V188059, (2R,3S,4S)-4-hydroxy-2-[(4-methoxyphenyl)methyl]pyrrolidin-3-yl N-[2-(pyridin-2-ylamino)ethyl]carbamate] | 
 |  |  | 4.52 to 4.70 | 4.70 to 5.00 | 4.70 to 5.00 | COc1ccc(C[C@H]2NC[C@H](O)[C@H]2OC(=O)NCCN[C@@H]2CCNC2)cc1 [V188073, (2R,3S,4S)-4-hydroxy-2-[(4-methoxyphenyl)methyl]pyrrolidin-3-yl N-{2-[(3R)-pyrrolidin-3-ylamino]ethyl}carbamate] | 
 |  |  | 4.52 to 4.70 | 4.70 to 5.00 | > 5.00 | COc1ccc(C[C@H]2NC[C@H](O)[C@H]2OC(=O)NCCn2ccnc2C)cc1 [V188087, (2R,3S,4S)-4-hydroxy-2-[(4-methoxyphenyl)methyl]pyrrolidin-3-yl N-[2-(2-methylimidazol-1-yl)ethyl]carbamate] | 
 |  |  | > 5.00 | > 5.00 | > 5.00 | COc1ccc(C[C@H]2NC[C@H](O)[C@H]2OC(=O)NCc2ccc(B(O)O)cc2)cc1 [V188106] | 
 |  |  | < 4.52 | 4.52 to 4.70 | 4.70 to 5.00 | COc1ccc(C[C@H]2NC[C@H](O)[C@H]2OC(=O)NC[C@H]2CNC[C@@H]2O)cc1 [V188114, (2R,3S,4S)-4-hydroxy-2-[(4-methoxyphenyl)methyl]pyrrolidin-3-yl N-{[(3R,4R)-4-hydroxypyrrolidin-3-yl]methyl}carbamate] | 
 |  |  | < 4.52 | < 4.52 | 4.70 to 5.00 | COc1ccc(C[C@H]2NC[C@H](O)[C@H]2OC(=O)NC[C@H]2CNC[C@H]2O)cc1 [V188115, (2R,3S,4S)-4-hydroxy-2-[(4-methoxyphenyl)methyl]pyrrolidin-3-yl N-{[(3R,4S)-4-hydroxypyrrolidin-3-yl]methyl}carbamate] | 
4.70 to 5.00 | 4.52 to 4.70 | > 5.00 |  |  |  | COc1ccc(C[C@H]2NC[C@H](O)[C@H]2OC(=O)NCC(F)(F)c2ccccc2)cc1 [V188165, (2R,3S,4S)-4-hydroxy-2-[(4-methoxyphenyl)methyl]pyrrolidin-3-yl N-(2,2-difluoro-2-phenylethyl)carbamate] | 4.52 to 4.70
> 5.00 | > 5.00 | > 5.00 |  |  |  | COc1ccc(C[C@H]2NC[C@H](O)[C@H]2OC(=O)NCc2ccc(C(N)=O)cc2)cc1 [V188296, (2R,3S,4S)-4-hydroxy-2-[(4-methoxyphenyl)methyl]pyrrolidin-3-yl N-[(4-carbamoylphenyl)methyl]carbamate] | > 5.00
4.70 to 5.00 | > 5.00 | > 5.00 |  |  |  | COc1ccc(C[C@H]2NC[C@H](O)[C@H]2OC(=O)NCC2COC2)cc1 [V188299, (2R,3S,4S)-4-hydroxy-2-[(4-methoxyphenyl)methyl]pyrrolidin-3-yl N-(oxetan-3-ylmethyl)carbamate] | > 5.00
> 5.00 | > 5.00 | > 5.00 |  |  |  | COc1ccc(C[C@H]2NC[C@H](O)[C@H]2OC(=O)NCc2nnc(C)o2)cc1 [V188303, (2R,3S,4S)-4-hydroxy-2-[(4-methoxyphenyl)methyl]pyrrolidin-3-yl N-[(5-methyl-1,3,4-oxadiazol-2-yl)methyl]carbamate] | > 5.00
> 5.00 | > 5.00 | > 5.00 |  |  |  | COc1ccc(C[C@H]2NC[C@H](O)[C@H]2OC(=O)NCc2ccc(F)c(C#N)c2)cc1 [V188310, (2R,3S,4S)-4-hydroxy-2-[(4-methoxyphenyl)methyl]pyrrolidin-3-yl N-[(3-cyano-4-fluorophenyl)methyl]carbamate] | > 5.00
> 5.00 | > 5.00 | > 5.00 |  |  |  | COc1ccc(C[C@H]2NC[C@H](O)[C@H]2OC(=O)NCc2ccc(N)nn2)cc1 [V188311, (2R,3S,4S)-4-hydroxy-2-[(4-methoxyphenyl)methyl]pyrrolidin-3-yl N-[(6-aminopyridazine-3-yl)methyl]carbamate] | > 5.00
> 5.00 | > 5.00 | > 5.00 |  |  |  | COc1ccc(C[C@H]2NC[C@H](O)[C@H]2OC(=O)NCc2ccc(Cn3cccn3)cc2)cc1 [V188314, (2R,3S,4S)-4-hydroxy-2-[(4-methoxyphenyl)methyl]pyrrolidin-3-yl N-{[4-(pyrazol-1-ylmethyl)phenyl]methyl}carbamate] | > 5.00
4.52 to 4.70 | > 5.00 | > 5.00 |  |  |  | COc1ccc(C[C@H]2NC[C@H](O)[C@H]2OC(=O)NCC#Cc2ccccc2)cc1 [V188315, (2R,3S,4S)-4-hydroxy-2-[(4-methoxyphenyl)methyl]pyrrolidin-3-yl N-(3-phenylprop-2-yn-1-yl)carbamate] | 4.70 to 5.00
 |  | < 4.52 |  |  |  | O=C(NCC[C@@H]1CCCN1)O[C@@H]1[C@@H](O)CN[C@@H]1Cc1ccc(-c2ccc(S(F)(F)(F)(F)F)cc2)cc1 [V191968, (2R,3S,4S)-4-hydroxy-2-((4′-(pentafluoro-l6-sulfanyl)-[1,1′-biphenyl]-4-yl)methyl)pyrrolidin-3-yl (2-((S)-pyrrolidin-2-yl)ethyl)carbamate] | < 4.52

SMILES | pIC50 (CCND1; IVTT) | pIC50 (MCL-1; IVTT, read-out: MCL1 IC50) | pIC50 (CCNTB1) | pIC50 (CCND1; sfGFP/mCherry ratio) | pIC50 (MYC; sfGFP/mCherry ratio) | pIC50 (MCL-1; sfGFP/mCherry ratio) | pIC50 (MYC; [1])
COc1ccc(C[C@H]2NC[C@H](O)[C@H]2OC(=O)NC[C@H]2CCN(C)C2)cc1 [V188306] | > 5.00 | > 5.00 | > 5.00 |  |  |  | > 5.00
